Source: PMC10507085, “Pharmacological inhibition of TBK1/IKKε blunts immunopathology in a murine model of SARS-CoV-2 infection” (Nature Communications, 2023)

Experiments:
Assay in all cases: biochemical
Design in all cases: KINOMEscan competition binding, DNA-tagged kinase against immobilised ligand, qPCR read-out
Settings in all cases: read-out: Percent Control
GAK = GAK (Homo sapiens, UniProt O14976)
TAOK3 = TAOK3 (Homo sapiens, UniProt Q9H2K8)
CAMKK1 = CAMKK1 (Homo sapiens, UniProt Q8N5S9)
EPHA8 = EPHA8 (Homo sapiens, UniProt P29322)
STK32C = STK32C (Homo sapiens, UniProt Q86UX6)
PDPK1 = PDPK1 (Homo sapiens, UniProt O15530)
MAPK12 = MAPK12 (Homo sapiens, UniProt P53778)
TEC = TEC (Homo sapiens, UniProt P42680)
SRPK2 = SRPK2 (Homo sapiens, UniProt P78362)
PIK3C2B = PIK3C2B (Homo sapiens, UniProt O00750)
MAP3K13 = MAP3K13 (Homo sapiens, UniProt O43283)
ADRBK1 = target: T1, ADRBK1 (Homo sapiens, UniProt P25098)
T1 construct: gene GRK2

FGR = FGR (Homo sapiens, UniProt P09769)
INSRR = INSRR (Homo sapiens, UniProt P14616)
CDK18 = CDK18 (Homo sapiens, UniProt Q07002)
ABL1-nonphosphorylated = target: T2, ABL1-nonphosphorylated (Homo sapiens, UniProt P00519)
T2 construct: nonphosphorylated

TNIK = TNIK (Homo sapiens, UniProt Q9UKE5)
AKT1 = AKT1 (Homo sapiens, UniProt P31749)
KDR = KDR (Homo sapiens, UniProt P35968)
KIT = KIT (Homo sapiens, UniProt P10721)

Chain of CAMKK1 (Q8N5S9 whole entry): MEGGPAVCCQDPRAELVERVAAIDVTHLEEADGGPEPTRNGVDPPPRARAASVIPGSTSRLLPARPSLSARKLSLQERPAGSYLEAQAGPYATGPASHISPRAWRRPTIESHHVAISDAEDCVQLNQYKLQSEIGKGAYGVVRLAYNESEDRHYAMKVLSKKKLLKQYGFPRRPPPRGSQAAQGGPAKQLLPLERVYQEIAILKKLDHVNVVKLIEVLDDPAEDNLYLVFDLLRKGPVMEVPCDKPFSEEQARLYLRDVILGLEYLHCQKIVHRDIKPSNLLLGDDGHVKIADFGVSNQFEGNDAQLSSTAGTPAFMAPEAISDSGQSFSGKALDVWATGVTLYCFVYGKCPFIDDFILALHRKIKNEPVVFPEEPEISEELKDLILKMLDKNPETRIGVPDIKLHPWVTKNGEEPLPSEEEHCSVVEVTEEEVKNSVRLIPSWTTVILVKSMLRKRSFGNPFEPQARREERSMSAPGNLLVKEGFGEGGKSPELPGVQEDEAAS
T2 sequence (P00519 whole entry): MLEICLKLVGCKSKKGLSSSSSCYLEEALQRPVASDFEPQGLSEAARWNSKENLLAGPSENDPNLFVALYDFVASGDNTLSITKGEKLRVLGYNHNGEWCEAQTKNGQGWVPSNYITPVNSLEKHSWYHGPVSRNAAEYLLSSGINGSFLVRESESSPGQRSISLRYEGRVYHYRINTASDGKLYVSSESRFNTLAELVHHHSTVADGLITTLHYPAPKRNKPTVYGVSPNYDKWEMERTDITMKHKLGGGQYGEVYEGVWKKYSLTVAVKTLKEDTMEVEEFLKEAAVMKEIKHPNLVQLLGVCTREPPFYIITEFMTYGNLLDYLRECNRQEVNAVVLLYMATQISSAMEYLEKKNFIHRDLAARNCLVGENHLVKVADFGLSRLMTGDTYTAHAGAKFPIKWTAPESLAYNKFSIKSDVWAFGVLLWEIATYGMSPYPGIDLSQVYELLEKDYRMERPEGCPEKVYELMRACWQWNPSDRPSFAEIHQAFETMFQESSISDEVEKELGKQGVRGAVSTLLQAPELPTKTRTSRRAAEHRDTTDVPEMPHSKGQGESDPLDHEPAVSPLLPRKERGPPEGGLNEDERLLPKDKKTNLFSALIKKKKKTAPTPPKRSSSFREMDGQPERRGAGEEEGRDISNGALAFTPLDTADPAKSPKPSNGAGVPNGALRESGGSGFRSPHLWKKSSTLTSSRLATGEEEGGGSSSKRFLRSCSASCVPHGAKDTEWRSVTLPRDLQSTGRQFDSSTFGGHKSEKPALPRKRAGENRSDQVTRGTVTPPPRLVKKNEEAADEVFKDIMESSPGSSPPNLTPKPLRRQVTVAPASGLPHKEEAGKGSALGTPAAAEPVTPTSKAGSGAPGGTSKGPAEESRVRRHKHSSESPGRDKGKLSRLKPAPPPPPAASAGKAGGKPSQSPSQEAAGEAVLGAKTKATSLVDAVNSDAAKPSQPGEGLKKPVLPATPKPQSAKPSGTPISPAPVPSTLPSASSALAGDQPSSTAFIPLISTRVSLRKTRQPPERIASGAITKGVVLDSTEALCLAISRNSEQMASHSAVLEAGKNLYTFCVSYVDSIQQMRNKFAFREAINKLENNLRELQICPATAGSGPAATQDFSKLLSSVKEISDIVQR
Chain of PIK3C2B (O00750 whole entry): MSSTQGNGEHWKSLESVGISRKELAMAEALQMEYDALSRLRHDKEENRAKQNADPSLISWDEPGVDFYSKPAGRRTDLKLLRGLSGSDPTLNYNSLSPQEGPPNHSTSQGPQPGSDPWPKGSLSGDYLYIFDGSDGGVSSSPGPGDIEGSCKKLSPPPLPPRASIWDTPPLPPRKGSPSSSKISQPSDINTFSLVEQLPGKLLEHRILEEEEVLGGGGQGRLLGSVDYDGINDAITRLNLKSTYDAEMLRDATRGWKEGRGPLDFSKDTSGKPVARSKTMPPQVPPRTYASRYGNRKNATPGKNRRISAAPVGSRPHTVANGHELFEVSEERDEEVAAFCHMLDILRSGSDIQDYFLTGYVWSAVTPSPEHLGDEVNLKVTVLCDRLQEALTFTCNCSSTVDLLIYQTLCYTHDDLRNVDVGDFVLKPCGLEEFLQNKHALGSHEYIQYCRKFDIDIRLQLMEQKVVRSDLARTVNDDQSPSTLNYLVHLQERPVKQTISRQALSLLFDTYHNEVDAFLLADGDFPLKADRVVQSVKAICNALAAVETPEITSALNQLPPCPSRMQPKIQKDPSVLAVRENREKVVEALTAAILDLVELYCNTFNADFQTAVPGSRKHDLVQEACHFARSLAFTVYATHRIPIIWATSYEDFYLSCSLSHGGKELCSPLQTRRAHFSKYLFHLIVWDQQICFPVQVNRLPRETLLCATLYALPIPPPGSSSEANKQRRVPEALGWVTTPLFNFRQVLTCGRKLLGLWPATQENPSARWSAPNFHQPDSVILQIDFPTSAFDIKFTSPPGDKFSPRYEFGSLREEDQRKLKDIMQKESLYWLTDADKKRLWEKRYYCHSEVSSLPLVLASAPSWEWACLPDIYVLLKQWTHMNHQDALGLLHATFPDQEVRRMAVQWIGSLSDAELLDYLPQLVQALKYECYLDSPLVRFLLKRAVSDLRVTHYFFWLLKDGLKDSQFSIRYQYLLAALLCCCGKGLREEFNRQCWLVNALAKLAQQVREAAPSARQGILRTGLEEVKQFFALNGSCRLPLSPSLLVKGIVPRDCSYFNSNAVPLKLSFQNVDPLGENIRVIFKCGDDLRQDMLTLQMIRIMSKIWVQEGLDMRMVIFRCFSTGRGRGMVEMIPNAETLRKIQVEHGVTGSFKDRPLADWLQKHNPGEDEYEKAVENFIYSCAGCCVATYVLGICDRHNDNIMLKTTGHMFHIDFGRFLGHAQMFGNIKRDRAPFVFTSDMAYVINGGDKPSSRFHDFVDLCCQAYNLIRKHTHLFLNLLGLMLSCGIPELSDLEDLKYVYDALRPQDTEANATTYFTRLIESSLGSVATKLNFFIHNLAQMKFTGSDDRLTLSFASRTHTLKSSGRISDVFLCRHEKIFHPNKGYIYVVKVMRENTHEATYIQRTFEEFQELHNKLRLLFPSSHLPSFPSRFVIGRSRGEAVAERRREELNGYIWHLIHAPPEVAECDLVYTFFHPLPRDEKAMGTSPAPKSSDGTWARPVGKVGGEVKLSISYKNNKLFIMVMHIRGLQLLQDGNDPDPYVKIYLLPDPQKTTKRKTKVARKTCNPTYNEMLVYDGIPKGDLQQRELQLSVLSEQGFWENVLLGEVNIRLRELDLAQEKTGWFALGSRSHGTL
Chain of AKT1 (P31749 whole entry): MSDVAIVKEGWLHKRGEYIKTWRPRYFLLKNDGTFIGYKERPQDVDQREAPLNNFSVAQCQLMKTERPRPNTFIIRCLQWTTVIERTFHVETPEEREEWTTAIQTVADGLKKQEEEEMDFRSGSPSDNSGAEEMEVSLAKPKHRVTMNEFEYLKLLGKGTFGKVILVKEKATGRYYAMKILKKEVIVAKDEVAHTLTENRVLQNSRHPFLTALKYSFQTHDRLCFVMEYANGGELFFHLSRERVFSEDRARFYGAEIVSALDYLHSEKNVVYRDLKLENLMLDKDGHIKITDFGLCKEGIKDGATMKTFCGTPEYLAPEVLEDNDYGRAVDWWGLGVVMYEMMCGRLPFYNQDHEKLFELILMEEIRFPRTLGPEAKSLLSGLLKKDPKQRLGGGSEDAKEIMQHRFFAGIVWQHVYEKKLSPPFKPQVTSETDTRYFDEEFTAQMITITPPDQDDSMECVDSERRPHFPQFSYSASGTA
Chain of MAPK12 (P53778 whole entry): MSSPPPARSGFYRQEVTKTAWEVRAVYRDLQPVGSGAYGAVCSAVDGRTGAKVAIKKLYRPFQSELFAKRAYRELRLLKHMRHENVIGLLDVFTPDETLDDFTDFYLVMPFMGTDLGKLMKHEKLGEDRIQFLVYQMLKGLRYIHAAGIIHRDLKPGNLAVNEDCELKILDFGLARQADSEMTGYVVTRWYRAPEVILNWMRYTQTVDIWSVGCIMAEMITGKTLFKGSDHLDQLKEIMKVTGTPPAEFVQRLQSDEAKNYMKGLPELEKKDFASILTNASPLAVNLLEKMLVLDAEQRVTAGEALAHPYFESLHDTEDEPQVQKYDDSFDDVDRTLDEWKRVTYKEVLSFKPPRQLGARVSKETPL
Chain of PDPK1 (O15530 whole entry): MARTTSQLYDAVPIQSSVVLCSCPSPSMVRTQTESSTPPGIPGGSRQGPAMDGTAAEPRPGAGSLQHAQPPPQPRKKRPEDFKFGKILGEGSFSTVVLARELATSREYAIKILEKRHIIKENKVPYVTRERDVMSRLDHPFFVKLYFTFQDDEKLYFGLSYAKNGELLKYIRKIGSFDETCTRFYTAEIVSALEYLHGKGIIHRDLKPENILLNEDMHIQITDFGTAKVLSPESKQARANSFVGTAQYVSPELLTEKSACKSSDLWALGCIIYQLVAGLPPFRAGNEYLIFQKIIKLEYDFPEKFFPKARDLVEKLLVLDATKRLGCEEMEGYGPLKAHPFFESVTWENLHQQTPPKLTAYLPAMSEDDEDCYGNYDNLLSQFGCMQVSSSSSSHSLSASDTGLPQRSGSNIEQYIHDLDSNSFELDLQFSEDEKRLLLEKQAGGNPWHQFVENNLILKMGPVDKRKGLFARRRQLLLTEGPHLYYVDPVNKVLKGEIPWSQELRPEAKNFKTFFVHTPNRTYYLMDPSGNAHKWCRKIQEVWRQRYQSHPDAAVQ

Oc1ccc(C2=Cc3ccc(O)cc3OC2)cc1 [compound 1, idronoxil]
remaining binding at 10 µM (GAK): 58% | remaining binding at 10 µM (TAOK3): 53% | remaining binding at 10 µM (CAMKK1): 78% | remaining binding at 10 µM (EPHA8): 89% | remaining binding at 10 µM (STK32C): 54% | remaining binding at 10 µM (PDPK1): 79% | remaining binding at 10 µM (MAPK12): 100% | remaining binding at 10 µM (TEC): 93% | remaining binding at 10 µM (SRPK2): 99% | remaining binding at 10 µM (PIK3C2B): 83% | remaining binding at 10 µM (MAP3K13): 84% | remaining binding at 10 µM (ADRBK1): 76% | remaining binding at 10 µM (FGR): 74% | remaining binding at 10 µM (INSRR): 94% | remaining binding at 10 µM (CDK18): 71% | remaining binding at 10 µM (ABL1-nonphosphorylated): 32% | remaining binding at 10 µM (TNIK): 56% | remaining binding at 10 µM (AKT1): 75% | remaining binding at 10 µM (KDR): 61% | remaining binding at 10 µM (KIT): 19%
